Measurements as given in patent US20180028498A1, “A PHARMACEUTICAL COMPOSITION FOR THE PARENTERAL ADMINISTRATION OF MELATONIN, AND A PROCESS FOR ITS PREPARATION” (INDUSTRIA FARMACEUTICA GALENICA SENESE S.R.L., priority 2015, published 2018).

Columns and labels:
[1] = Solubility / maximum concentration of melatonin in solvent; assay type: physicochemical; settings: physiological saline solution, no excipients, co-solvents or diluents
Excerpt: There are moreover disclosed in the literature injectable formulations of melatonin, that are in general solutions of melatonin in ethanol or in propylene glycol, then diluted with water. As a matter of fact, melatonin is known to be a substance that dissolves in aqueous media with great difficulties.
The present pharmaceutical compositions in the form of an aqueous solution, thanks to the process of preparation of the invention described in detail in the following, may contain, dissolved in aqueous solution, amounts of melatonin that are relatively high and suitable for the dosages required in medical treatments; the concentration of melatonin in the present compositions is indeed comprised between 0.2 and 0.4 mg/ml, this latter being the maximum value of concentration obtained for the melatonin in the present aqueous compositions, in the absence of any excipients, co-solvents or diluents different from the physiological saline solution.
A pharmaceutical dissolver of suitable size was deaerated by insufflation of filtered nitrogen, then the dissolver was charged with water for injections at 85° C., to fill approximately 80% of the inner volume of the dissolver. After cooling water at 50° C., sodium chloride was added in such amount as to obtain a final concentration of 9mg/ml; the so obtained solution was deaerated by bubbling filtered nitrogen. […]

[2] = cited from earlier work
[3] = test system: free radicals (pro-inflammatory cytokines); settings: ventilated infants with bronchopulmonary dysplasia; cited from earlier work
chronic lung disease = settings: infants; cited from earlier work
pain = settings: in combination with other drugs, endotracheal intubation in infants; cited from earlier work

COc1ccc2[nH]cc(CCNC(C)=O)c2c1 [melatonin, N-acetyl-5-methoxytriptamine]
maximum value of concentration obtained in aqueous composition [1]: 0.4 mg/mL | solubility in ethanol ([2]; ethanol): fairly good solubility | solubility in water ([2]; water): close to zero | reduction of production of free radicals (pro-inflammatory cytokines) [3]: effective in reducing the production of these molecules | efficacy in chronic lung disease (chronic lung disease): same efficacy has been demonstrated | efficacy as an analgesic (pain): demonstrated the efficacy
